The test system of assay [1] is TAG. The assay can be described thus: triacylglycerol accumulation inhibitor potency, dose response, cell-based, panel, Nile Red and DAPI fluorescence, H9c2 (AID 651630).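 Also: cells exposed to compound overnight before fixation and staining.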 Particulars: H9c2 cells, Nile Red TAG fluorescence, oleic acid.
Assay [2] concerns DAPI. The description is as above. Particulars: H9c2 cells, DAPI nuclear fluorescence (cytotoxicity counter-readout), oleic acid.

Calls of active or inactive are those of the source.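 The calls were made as follows: active = lipid-stain IC50 at or below a set limit, with nuclear-stain toxicity IC50 at least five times higher; inactive = the rest.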

By IC50 is commonly meant the concentration that inhibits the measured activity by half. In the case of `NC1=NC[C@H](Cc2ccccc2)N1CCc1cc(C(F)(F)F)cc(C(F)(F)F)c1`, the IC50 in assay [1] (mean of runs) is > 25 µM (inactive); in assay [1] (run 1), over 25 µM; in assay [1] (run 2), over 25 µM. The results for the IC50 cytotoxicity (DAPI nuclear signal decrease) in assay [2] (mean of runs), in assay [2] (run 1) and in assay [2] (run 2) were > 25 µM (inactive), over 25 µM and over 25 µM, respectively.
In the case of `COC(=O)c1cc(C(=O)N2CCN(c3cccc(Cl)c3)CC2)cc([N+](=O)[O-])c1`, the IC50 is 22.4 µM in assay [1] (run 1) and over 25 µM in assay [1] (run 2). Further, the results for the IC50 cytotoxicity (DAPI nuclear signal decrease) in assay [2] (mean of runs), in assay [2] (run 1) and in assay [2] (run 2) were > 25 µM (inactive), over 25 µM and over 25 µM, respectively.
For `CN=C1c2cc3cc(OC)ccc3n2CCN1Cc1ccccc1`, the half-maximal inhibitory concentration (IC50) in assay [1] (mean of runs) is 10.6 µM; in assay [1] (run 1), 9.62 µM; in assay [1] (run 2) it was 11.7 µM. Moreover, the IC50 cytotoxicity (DAPI nuclear signal decrease) is > 25 µM (inactive) in assay [2] (mean of runs), over 25 µM in assay [2] (run 1) and over 25 µM in assay [2] (run 2).
For `CCOC(=O)/C(=N\Nc1ccc(Cl)cc1)c1csc(Nc2ccccc2)n1`, the IC50 was 6.51 µM in assay [1] (mean of runs), 6.29 µM in assay [1] (run 1) and 6.72 µM in assay [1] (run 2). For the same molecule, the values for the IC50 cytotoxicity (DAPI nuclear signal decrease) in assay [2] (mean of runs), in assay [2] (run 1) and in assay [2] (run 2) were 22.5 µM (inactive), 20.6 µM and 24.4 µM, respectively.
Consider `Cc1ccc(Cl)cc1NC(=S)N/N=C/c1cccc2ccccc12`, for which the results for the half-maximal inhibitory concentration (IC50) in assay [1] (run 1) and in assay [1] (run 2) were 19.9 µM and over 25 µM, respectively. The IC50 cytotoxicity (DAPI nuclear signal decrease) is > 25 µM (inactive) in assay [2] (mean of runs), over 25 µM in assay [2] (run 1) and over 25 µM in assay [2] (run 2).
With `CCOC(=O)c1c(CSC(=N)N)n(-c2ccccc2)c2cc(Br)c(OC(C)=O)cc12`, the IC50 was 18 µM (inactive) in assay [1] (mean of runs), 17.1 µM in assay [1] (run 1) and 18.9 µM in assay [1] (run 2). The IC50 cytotoxicity (DAPI nuclear signal decrease) is > 25 µM (inactive) in assay [2] (mean of runs), over 25 µM in assay [2] (run 1) and over 25 µM in assay [2] (run 2).
Take `c1ccc(OCCNc2nc(NCC3CC3)nc3cc(-c4ccccc4)sc23)cc1`: the half-maximal inhibitory concentration (IC50) in assay [1] (mean of runs) was 12.8 µM; in assay [1] (run 1), 12.7 µM; in assay [1] (run 2), 12.9 µM. Further, the IC50 cytotoxicity (DAPI nuclear signal decrease) was > 25 µM (inactive) in assay [2] (mean of runs), over 25 µM in assay [2] (run 1) and over 25 µM in assay [2] (run 2).
As to `COC(=O)c1cc(NC(=O)c2c(Cl)nc3sccn23)cc(C(=O)OC)c1`, the IC50 in assay [1] (mean of runs) is > 25 µM (inactive); in assay [1] (run 1), over 25 µM; in assay [1] (run 2), over 25 µM. Besides, the IC50 cytotoxicity (DAPI nuclear signal decrease) in assay [2] (mean of runs) is > 25 µM (inactive); in assay [2] (run 1), over 25 µM; in assay [2] (run 2) it was over 25 µM.
As for `COc1ccc(S(=O)(=O)N2N=C(C)Oc3ccccc3C2=O)cc1`, the IC50 was > 25 µM (inactive) in assay [1] (mean of runs), over 25 µM in assay [1] (run 1) and over 25 µM in assay [1] (run 2). For the same molecule, the results for the IC50 cytotoxicity (DAPI nuclear signal decrease) in assay [2] (mean of runs), in assay [2] (run 1) and in assay [2] (run 2) were > 25 µM (inactive), over 25 µM and over 25 µM, respectively.
Regarding `CC(C)(C)OC(=O)N(CCc1ccccc1)Cc1ccccc1OCc1cccc(NC(=O)/C=C/c2ccccc2)c1`, the half-maximal inhibitory concentration (IC50) in assay [1] (mean of runs) was 15 µM; in assay [1] (run 1), 21 µM; in assay [1] (run 2) it was 8.93 µM. Also, the IC50 cytotoxicity (DAPI nuclear signal decrease) is > 25 µM (inactive) in assay [2] (mean of runs), over 25 µM in assay [2] (run 1) and over 25 µM in assay [2] (run 2).
As to `COc1cc2c(c(OC)c1OC)-c1ccc(OC)c(=O)cc1C(NC(=O)c1ccccc1)CC2` (centres undefined), the half-inhibitory concentration (IC50) in assay [1] (run 1) is 12.2 µM; in assay [1] (run 2), over 25 µM. The IC50 cytotoxicity (DAPI nuclear signal decrease) in assay [2] (mean of runs) is > 25 µM (inactive); in assay [2] (run 1), over 25 µM; in assay [2] (run 2) it was over 25 µM.
With `COC(=O)[C@@]1(Cc2ccc(F)cc2)[C@H]2c3cc(C(=O)N4CCCC4)n(CCCNc4ncc(C(F)(F)F)cc4Cl)c3C[C@H]2CN1C(=O)c1ccccc1`, the half-maximal inhibitory concentration (IC50) is 2.58 µM in assay [1] (mean of runs), 2.76 µM in assay [1] (run 1) and 2.41 µM in assay [1] (run 2). The IC50 cytotoxicity (DAPI nuclear signal decrease) in assay [2] (run 1) and in assay [2] (run 2) was over 25 µM throughout.
For `COc1ccc(NC(=O)c2nc(C)c(C3(C)CC(c4ccccc4)=NO3)s2)cc1` (centres undefined), the half-inhibitory concentration (IC50) in assay [1] (mean of runs) was 7.56 µM; in assay [1] (run 1), 4.88 µM; in assay [1] (run 2) it was 10.2 µM. Further, the results for the IC50 cytotoxicity (DAPI nuclear signal decrease) in assay [2] (mean of runs), in assay [2] (run 1) and in assay [2] (run 2) were > 25 µM (inactive), over 25 µM and over 25 µM, respectively.
Consider `O=c1c2c3nc4ccccc4nc3n(/N=C/c3ccccn3)c2ncn1-c1ccccc1`, for which the results for the half-inhibitory concentration (IC50) in assay [1] (mean of runs), in assay [1] (run 1) and in assay [1] (run 2) were 2.48 µM, 3.37 µM and 1.59 µM, respectively. The IC50 cytotoxicity (DAPI nuclear signal decrease) in assay [2] (run 1) and in assay [2] (run 2) was over 25 µM each time.
For the molecule `CCN(C[C@H]1N[C@@](CC)(C(=O)OC)[C@H]2C(=O)N(Cc3ccccc3)C(=O)[C@@H]12)S(=O)(=O)c1ccc(C(C)(C)C)cc1`, the IC50 in assay [1] (mean of runs) is 10 µM; in assay [1] (run 1), 10.5 µM; in assay [1] (run 2), 9.54 µM. Moreover, the IC50 cytotoxicity (DAPI nuclear signal decrease) in assay [2] (mean of runs) is > 25 µM (inactive); in assay [2] (run 1) it was over 25 µM; in assay [2] (run 2), over 25 µM.
Consider `CN(C)CCCN1c2ccccc2Sc2ccccc21`, for which the IC50 in assay [1] (mean of runs) was > 25 µM (inactive); in assay [1] (run 1), over 25 µM; in assay [1] (run 2) it was over 25 µM. Further, the IC50 cytotoxicity (DAPI nuclear signal decrease) was > 25 µM (inactive) in assay [2] (mean of runs), over 25 µM in assay [2] (run 1) and over 25 µM in assay [2] (run 2).
For the molecule `COc1ccc(-n2nc(C(=O)Nc3ccc4c(c3)OCO4)c3c4ccccc4n(C)c3c2=O)cc1`, the concentration for half-maximal inhibition (IC50) in assay [1] (run 1) was 24.8 µM; in assay [1] (run 2) it was over 25 µM. Besides, the IC50 cytotoxicity (DAPI nuclear signal decrease) in assay [2] (mean of runs) is > 25 µM (inactive); in assay [2] (run 1) it was over 25 µM; in assay [2] (run 2), over 25 µM.
Regarding `CCOC(=O)C(C)Oc1cccc2c(=O)n(CC(=O)NCc3ccc4c(c3)OCO4)ccc12` (centres undefined), the IC50 was 18 µM (inactive) in assay [1] (mean of runs), 18.2 µM in assay [1] (run 1) and 17.9 µM in assay [1] (run 2). Also, the IC50 cytotoxicity (DAPI nuclear signal decrease) in assay [2] (mean of runs) was > 25 µM (inactive); in assay [2] (run 1), over 25 µM; in assay [2] (run 2) it was over 25 µM.
For `CCOC(=O)c1c(CN2CCNCC2)nc2ccc(Cl)cc2c1-c1ccccc1`, the IC50 in assay [1] (mean of runs) is > 25 µM (inactive); in assay [1] (run 1), over 25 µM; in assay [1] (run 2), over 25 µM. Moreover, the IC50 cytotoxicity (DAPI nuclear signal decrease) in assay [2] (mean of runs) was 16.8 µM (inactive); in assay [2] (run 1), 17.1 µM; in assay [2] (run 2), 16.5 µM.
Regarding `CCC(=NCCc1c(C)[nH]c2ccc(OC(F)(F)F)cc12)C1=C(O)CC(c2ccccc2)CC1=O` (centres undefined), the IC50 is > 25 µM (inactive) in assay [1] (mean of runs), over 25 µM in assay [1] (run 1) and over 25 µM in assay [1] (run 2). For the same molecule, the IC50 cytotoxicity (DAPI nuclear signal decrease) is > 25 µM (inactive) in assay [2] (mean of runs), over 25 µM in assay [2] (run 1) and over 25 µM in assay [2] (run 2).
`COc1cc(/C=C2\Oc3ccc(C#Cc4ccc(O)cc4)cc3C2=O)cc(OC)c1`: the results for the IC50 in assay [1] (mean of runs), in assay [1] (run 1) and in assay [1] (run 2) were 3.01 µM, 3.1 µM and 2.92 µM, respectively. The IC50 cytotoxicity (DAPI nuclear signal decrease) is 4.72 µM (inactive) in assay [2] (mean of runs), 5.07 µM in assay [2] (run 1) and 4.36 µM in assay [2] (run 2).
With `COc1ccc(NC(=O)C2(C)Cc3c(-c4cccc(NC(C)=O)c4)ccnc3O2)cn1` (centres undefined), the figures for the IC50 in assay [1] (mean of runs), in assay [1] (run 1) and in assay [1] (run 2) were > 25 µM (inactive), over 25 µM and over 25 µM, respectively. Moreover, the IC50 cytotoxicity (DAPI nuclear signal decrease) in assay [2] (mean of runs) is > 25 µM (inactive); in assay [2] (run 1), over 25 µM; in assay [2] (run 2), over 25 µM.
As for `COc1ccc(C(C(=O)NC(C)(C)C)N(Cc2ccco2)C(=O)CCC(=O)Nc2cc(C)on2)cc1` (centres undefined), the IC50 in assay [1] (mean of runs) is 19 µM (inactive); in assay [1] (run 1), 19.9 µM; in assay [1] (run 2), 18.1 µM. Further, the IC50 cytotoxicity (DAPI nuclear signal decrease) in assay [2] (mean of runs) is > 25 µM (inactive); in assay [2] (run 1), over 25 µM; in assay [2] (run 2) it was over 25 µM.
For the molecule `NC(Cc1ccc(Cl)cc1)c1csc(NC(=O)NCCc2ccccc2)n1` (centres undefined), the IC50 in assay [1] (mean of runs) was > 25 µM (inactive); in assay [1] (run 1), over 25 µM; in assay [1] (run 2), over 25 µM. Also, the IC50 cytotoxicity (DAPI nuclear signal decrease) in assay [2] (mean of runs) was 19.7 µM (inactive); in assay [2] (run 1), 19 µM; in assay [2] (run 2), 20.4 µM.
As for `O=C(NCCc1c[nH]c2ccccc12)C1CCC(Cn2c(=S)[nH]c3ccccc3c2=O)CC1` (centres undefined), the 50% inhibitory concentration (IC50) in assay [1] (run 1) was over 25 µM; in assay [1] (run 2), 22.2 µM. The IC50 cytotoxicity (DAPI nuclear signal decrease) in assay [2] (mean of runs) is > 25 µM (inactive); in assay [2] (run 1) it was over 25 µM; in assay [2] (run 2), over 25 µM.
`O=C(Nc1ccc(/C=C/c2nc3ccccc3o2)cc1)c1c(F)cccc1F`: the IC50 in assay [1] (mean of runs) is 10.5 µM; in assay [1] (run 1) it was 13.2 µM; in assay [1] (run 2), 7.82 µM. Moreover, the IC50 cytotoxicity (DAPI nuclear signal decrease) in assay [2] (mean of runs) was > 25 µM (inactive); in assay [2] (run 1), over 25 µM; in assay [2] (run 2) it was over 25 µM.
As for `Cc1ccc2c(c1)-c1c(cnn1CC(=O)Nc1ccccc1N1CCN(C)CC1)CO2`, the IC50 in assay [1] (run 1) was 24.2 µM; in assay [1] (run 2), over 25 µM. Moreover, the IC50 cytotoxicity (DAPI nuclear signal decrease) in assay [2] (mean of runs) was > 25 µM (inactive); in assay [2] (run 1), over 25 µM; in assay [2] (run 2) it was over 25 µM.
